Test results published in paper PMC3141083 (Journal of medicinal chemistry, 2011).
Where two headings read alike, the source gives them in different places.

How the values were obtained:
KB (nasopharyngeal) = experiment: Cytotoxicity; type: cell-based; conditions: KB cell line
[1] = tested on: A549, DU-145, KB, HCT-8 cancer cell lines; experiment: Cytotoxicity screen, stated over the panel of four cancer cell lines; type: cell-based
[2] = read-out: GI50 (all tested cancer cell lines)

SMILES | GI50 KB (KB (nasopharyngeal)) [nM] | GI50 [1, 2] [nM] | also measured
COc1ccc2c3c(c4cc(OC)c(OC)cc4c2c1)C[C@H]1COCCN1C3 [Compound 11, (S)-13-Oxa-cryptopleurine] | 37 ± 9 | – | –
COc1ccc2c3c(c4cc(OC)c(OC)cc4c2c1)C[C@@H]1CCOCN1C3 [Compound 14, (R)-12-Oxa-cryptopleurine] | – | > 1000 | –
COc1ccc2c3c(c4cc(OC)c(OC)cc4c2c1)C[C@H]1CN(c2ccccc2)CN1C3 [Compound 3f] | – | – | GI50 ([1]; read-out: average GI50): > 20000 nM
COc1ccc2c3c(c4cc(OC)c(OC)cc4c2c1)C[C@H]1CCOCCN1C3 [Compound 16] | 68 ± 10 | – | –
COc1ccc2c3c(c4cc(OC)c(OC)cc4c2c1)C[C@H]1CCCN1C3 [R-antofine, reference compound] | 36 ± 8 | – | –
COc1ccc2c3c(c4cc(OC)c(OC)cc4c2c1)C[C@H]1CCCCCN1C3 [Compound 15] | 102 ± 19 | – | –
COc1ccc2c3c(c4cc(OC)c(OC)cc4c2c1)C[C@H]1CCCCN1C3 [crypto-pleurine, R-cryptopleurine, reference compound] | 1.51 ± 0.33 | – | –
COc1ccc2c3c(c4cc(OC)c(OC)cc4c2c1)C[C@H]1CCN(c2ccccc2)CN1C3 [Compound 10b] | – | > 20000 | –
COc1ccc2c3c(c4cc(OC)c(OC)cc4c2c1)C[C@H]1CCN(Cc2ccccc2)CN1C3 [Compound 10d] | – | > 20000 | –
COc1ccc2c3c(c4cc(OC)c(OC)cc4c2c1)C[C@H]1CCOCN1C3 [Compound 13, (S)-12-Oxa-cryptopleurine] | – | > 1000 | –
